Assays:
[1] = target: T1, CHEK1 (Homo sapiens, UniProt O14757); assay: DiscoverX scanMAX competition binding assay; conditions: read-out: % inhibition at 1 μM
T1 construct: purchased Eurofins DiscoverX Corporation

[2] = tested on: BRSK2-induced phosphorylation; assay: Western blot of BRSK2-induced phosphorylation in HEK293T cells; format: cell-based
Text: With confirmed cellular activity, we next focused on characterizing the pathways mediated by BRSK2 utilizing GW296115. BRSK2 has a similar kinase domain to AMPK and is activated by LKB1-mediated phosphorylation in the active site at T174[24]–[26]. As previously reported, BRSK2 induces phosphorylation of AMPK substrates. Therefore, we asked whether this BRSK2-induced phosphorylation of AMPK substrates is ablated by GW296115. First, we evaluated the effect of GW296115 on AMPK substrate phosphorylation in HEK293T cells overexpressing wild-type or kinase-dead BRSK2 (Fig. 3B). Specifically, we overexpressed two different kinase-dead BRSK2 constructs, K48A and T174A, and treated cells with 2.5 μM of GW296115 for 2 or 6 h. Compared to cells expressing hcRED control, wild-type BRSK2 overexpression induced AMPK substrate phosphorylation, as measured by phospho-S/T AMPK substrate antibody. This change was not observed when overexpressing kinase-dead variants. BRSK2-induced AMPK substrate phosphorylation was ablated with GW269115 treatment at both 2- and 6-h time-points.
Next we evaluated whether specific bona fide AMPK substrates were phosphorylated by BRSK2. Based on the total pS/T AMPK substrate blots, we decided to check known substrates that match the size of the most robust changes due to BRSK2 overexpression. UNC51-like kinase 1 (ULK1) is a 120 kDa kinase that is member of the autophagy initiation complex, and is phosphorylated by AMPK at multiple residues, S317 and S555, among others[27]–[29]. Therefore, we overexpressed wild type BRSK2 in HEK293T cells and measured changes in pULK1 S317 and S555 following treatment with increasing doses of GW296115 for 2 h. BRSK2 overexpression increased phosphorylation of ULK1 at S317, but not S555. […] However, in samples expressing control hcRED, treatment with GW296115 increased pAMPK T172. We also asked if activating phosphorylation of ULK1 leads to increased phosphorylation of downstream components of the autophagy complex. Therefore we evaluated phosphorylation of S351 on P62 (SQSTM1), which is a stress induced autophagy receptor for ubiquitylated cargo[30]. Due to its central role as a signaling hub, P62 accumulation and phosphorylation serves as a sensor for starvation, oxidative stress, and selective autophagy[30]–[32]. […] Moreover, these phosphorylation events were ablated by GW296115 in a dose dependent manner (Fig. 4B,C).
Western blots were carried out as described previously. HEK293T cells were plated in 6-well format and incubated at 37 °C with 5% CO2 for 12 h. Next, cells were transfected with 1.5 ug of plasmid per well for 24 h and treated with GW296115 (in DMSO). Samples were lysed using standard conditions of RIPA (10% glycerol, 50 mM Tris–HCL, 100 mM NaCl, 2 mM EDTA, 0.1% SDS, 1% Nonidet P-40, and 0.2% Sodium Deoxycholate) supplemented with protease inhibitor cocktail (ThermoFisher Scientific, 78429), phosphatase inhibitor cocktail (ThermoFisher Scientific, 78426), NEM (Thermo Scientific, 23030), and Benzonase (Sigma, E1014). Lysis was carried out on ice over the course of 30 min and resultant lysates were centrifuged at 4 °C for 15 min at 21,000×g. Following normalization of protein concentration via BCA (Pierce, 23225), samples were denatured in NuPAGE LDS buffer (Invitrogen, NP0007) plus 1 mM DTT. Blots were imaged with a LiCor Odyssey imager, and then quantified using ImageStudio 5.2. Finally, ANOVA with multiple comparison was performed for quantitated blots using Prism 8.2.4.

[3] = tested on: PDGFRβ; parameters: method as in PMID 26501955; conditions: cited from earlier work
[4] = target: T2, STK17B/DRAK2 (Homo sapiens, UniProt O94768); parameters: purchased Eurofins; method as in earlier work; conditions: cited from earlier work
T2 sequence (O94768 1-372): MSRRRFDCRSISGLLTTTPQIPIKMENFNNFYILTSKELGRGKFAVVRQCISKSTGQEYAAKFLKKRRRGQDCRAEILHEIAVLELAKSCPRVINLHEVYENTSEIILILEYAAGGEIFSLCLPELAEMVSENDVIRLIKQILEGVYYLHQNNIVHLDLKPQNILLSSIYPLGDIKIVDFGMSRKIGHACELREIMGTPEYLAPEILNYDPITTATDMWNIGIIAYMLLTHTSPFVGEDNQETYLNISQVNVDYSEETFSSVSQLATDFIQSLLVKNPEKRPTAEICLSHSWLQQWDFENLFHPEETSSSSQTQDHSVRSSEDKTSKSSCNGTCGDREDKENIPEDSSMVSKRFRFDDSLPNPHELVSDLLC

[5] = target: T3, BRSK2 (Homo sapiens, UniProt Q8IWQ3); parameters: purchased Eurofins DiscoverX Corporation; method as in earlier work; conditions: cited from earlier work
T3 sequence (Q8IWQ3 1-736): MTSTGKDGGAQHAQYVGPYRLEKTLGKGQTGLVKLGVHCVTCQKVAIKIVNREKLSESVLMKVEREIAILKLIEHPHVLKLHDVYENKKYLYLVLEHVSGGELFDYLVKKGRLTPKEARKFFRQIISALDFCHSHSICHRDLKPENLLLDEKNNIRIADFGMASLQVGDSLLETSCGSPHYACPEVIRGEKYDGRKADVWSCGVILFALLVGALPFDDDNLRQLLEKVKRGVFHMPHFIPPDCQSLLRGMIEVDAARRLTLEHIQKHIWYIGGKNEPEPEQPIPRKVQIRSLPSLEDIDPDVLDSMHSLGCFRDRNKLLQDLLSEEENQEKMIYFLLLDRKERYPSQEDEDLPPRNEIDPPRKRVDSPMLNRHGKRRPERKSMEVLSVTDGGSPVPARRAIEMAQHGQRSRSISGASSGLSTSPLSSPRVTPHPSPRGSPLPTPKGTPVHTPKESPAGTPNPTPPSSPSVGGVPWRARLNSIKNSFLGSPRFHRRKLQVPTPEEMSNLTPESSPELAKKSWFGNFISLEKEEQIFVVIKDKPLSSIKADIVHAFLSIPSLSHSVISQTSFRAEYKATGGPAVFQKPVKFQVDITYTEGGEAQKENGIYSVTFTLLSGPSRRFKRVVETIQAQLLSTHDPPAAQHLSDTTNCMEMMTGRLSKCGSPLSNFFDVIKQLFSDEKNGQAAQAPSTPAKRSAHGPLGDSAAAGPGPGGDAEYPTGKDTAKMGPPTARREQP

[6] = HEK293T overexpressing wild type BRSK2, increasing doses for 2 h

T1 sequence (O14757 whole entry): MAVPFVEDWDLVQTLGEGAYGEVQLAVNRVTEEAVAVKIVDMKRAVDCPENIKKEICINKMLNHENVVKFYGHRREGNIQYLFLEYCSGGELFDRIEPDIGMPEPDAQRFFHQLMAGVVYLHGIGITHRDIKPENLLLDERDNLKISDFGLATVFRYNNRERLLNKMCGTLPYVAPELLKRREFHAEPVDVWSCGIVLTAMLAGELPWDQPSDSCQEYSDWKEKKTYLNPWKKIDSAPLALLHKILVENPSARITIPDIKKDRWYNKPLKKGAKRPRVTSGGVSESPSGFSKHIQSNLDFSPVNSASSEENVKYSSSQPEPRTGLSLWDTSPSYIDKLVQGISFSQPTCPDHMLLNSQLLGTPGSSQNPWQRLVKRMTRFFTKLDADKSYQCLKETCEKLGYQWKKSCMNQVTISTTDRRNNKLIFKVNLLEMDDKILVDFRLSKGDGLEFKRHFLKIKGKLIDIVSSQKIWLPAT

COc1ccc2[nH]c3c4[nH]c5ccc(OC)cc5c4c4c(c3c2c1)C(=O)NC4=O [GW296115]
inhibition at 1 µM [1]: 70%
BRSK2-induced phosphorylation of ULK1 S317 [2, 6]: decreased dose-dependently
pP62 S351 following BRSK2 overexpression [2, 6]: dose dependently downregulated
BRSK2-induced AMPK substrate phosphorylation (phospho-S/T AMPK substrate antibody) ([2]; HEK293T overexpressing wild-type BRSK2, 2.5 μM for 2 or 6 h): ablated
phosphorylation of BRSK2 at T174 ([2]; HEK293T overexpressing wild-type or K48A BRSK2): hyper-phosphorylated
phosphorylation at the LKB1 target site (T172) on AMPK ([2]; HEK293T, 2.5 μM for 2 or 6 h): did not inhibit
Nanosyn % Inhibition at 1 μM [3]: 85%
TSA ΔTm at 10 μM (°C) [4]: 18.3 °C
Nanosyn % Inhibition at 1 μM [5]: 95%

— paper PMC7522982, “PKIS deep dive yields a chemical starting point for dark kinases and a cell active BRSK2 inhibitor” (Scientific Reports, 2020)
